From US4030886A, “Saturation analysis” (The Radiochemical Centre Limited, priority 1973, dated 1977)
Values joined by “and” are separate entries in the source; they are usually repeats but may differ in a detail not shown here. Equal values may be shown once.

What was measured:
[1] = target: T1, transcortin (charcoal treated rabbit serum) (Oryctolagus cuniculus, UniProt P23775); experiment: Assay for cortisol using 2-methylseleno-1-dehydro-cortisol-21-acetate-Se75; assay type: binding; details: for Counts - BKG in 300 sec: 2.5 ng label
T1 construct: charcoal treated rabbit serum; from tissue; host or cells: rabbit serum, charcoal treated
T1 sequence (P23775 1-383): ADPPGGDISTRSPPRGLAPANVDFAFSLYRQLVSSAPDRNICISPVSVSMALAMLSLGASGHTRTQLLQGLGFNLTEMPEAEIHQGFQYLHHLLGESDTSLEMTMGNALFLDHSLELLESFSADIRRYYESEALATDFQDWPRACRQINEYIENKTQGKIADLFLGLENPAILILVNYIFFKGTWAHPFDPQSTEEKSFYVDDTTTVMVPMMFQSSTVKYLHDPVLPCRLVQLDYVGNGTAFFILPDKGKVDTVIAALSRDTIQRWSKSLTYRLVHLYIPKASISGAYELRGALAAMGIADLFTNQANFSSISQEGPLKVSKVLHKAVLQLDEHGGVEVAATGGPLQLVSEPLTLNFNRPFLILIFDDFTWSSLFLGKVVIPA
Procedure: (§1) Into each glass assay tube was dispensed glycine buffer containing 1% sodium azide (pH 9.0; 5.5 ml), charcoal treated rabbit serum (50 μl), bis-2,2'-(21-acetoxy-1-dehydrocortisol)-diselenide-Se 75 (2.3 ng, sp. activity ca 6 Ci/m atom), and Sephadex G25 (1 g). […] The tubes were capped and rotated at room temperature for 1 hour using a blood cell suspension mixer. After this time an aliquot (1 ml) of the supernatant liquid was withdrawn from each tube and counted for 300 seconds using an NE8311 gamma counter.
Into each glass assay tube was dispensed 0.05M phosphate buffer containing sodium azide 1% (pH 7.4; 6 ml), charcoal treated rabbit serum (50 μl), 2-methylseleno-1-dehydrocortisol-21-acetate-Se75) (2.5 ng; sp. activity ca 3 Ci/m atom), and Sephadex G25 (1 g).
The assay procedure was identical with that described above.

[2] = test system: Antisera raised in rabbits to testosterone 3-carboxymethyloxime-BSA; experiment: Radioimmunoassay for testosterone, antiserum dilution curve; assay type: binding, rabbit; details: for % Bound: 25pg label per assay tube
Procedure: Antisera were raised in rabbits to testosterone 3-carboxymethyloxime-BSA.
SE75 labelled 2-methylseleno-1-dehydrotestosterone (specific activity 15-20 Ci/mmol) was prepared by base catalysed hydrolysis of 2-methylseleno 1-dehydrotestosterone acetate which is described in our prior patent specification.
Antiserum dilution curves were set up in the usual way using antiserum and labelled testosterone as described above.
Typical figures for the antiserum dilution curves when 25pg labelled testosterone was used per assay tube are: […]

[3] = test system: antiserum raised to digoxin; experiment: Dilution curve for 3-methylselenodigoxigenin; assay type: binding; details: for Mean Count: 200 μl supernatant
Procedure: An antiserum dilution curve for 3-methylselenodigoxigenin-Se 75 (specific activity 16 Ci/m mol) in buffered saline (0.15M NaCl, 0.05M KH2 PO4, 0.1% Na N3, and 0.1% BSA) was made up at a concentration of 0.0228 n mol/ml. Dilutions of antiserum raised to digoxin were prepared in assay buffer at 1/50, 1/100, 1/200, 1/400, 1/500, 1/800, 1/1000. Tubes were set up in duplicate for total activity, blanks, and antiserum dilutions as follows: total activity, 50 μl ^75 Se compound and 250 μl assay buffers; blanks, 50 μl ^75 Se compound and 150 μl assay buffer; antiserum dilutions, 50 μl ^75 Se compound, 100 μl buffer and 50 μl antiserum. The tubes were incubated for 30 minutes after which 100 μl of charcoal (0.65 g Norit OL in 50 ml assay buffer + 1 gram BSA) was added to each tube except the totals. After 10 minutes incubation the tubes were centrifuged and a 200 μl sample of the supernatant was counted.

[4] = target: T2, Transcortin from rabbit serum (Oryctolagus cuniculus, UniProt P23775); experiment: CPB assay for cortisol using Se-75 labelled bis-2,2'-(1-dehydrocorticosterone)-diselenide; assay type: binding
T2 construct: Transcortin from rabbit serum; from tissue; host or cells: rabbit serum
T2 sequence (P23775 1-383): T1 sequence (P23775 1-383)
Procedure: as §1
Se-75 labelled bis-2,2'-(1-dehydrocorticosterone)-diselenide was prepared by base hydrolysis of Se75-labelled bis-2,2'-(21-acetoxy-1-dehydrocorticosterone) diselenide which is described in our U.S. Ser. No. 426,695.
Using this radiolabelled material an assay for cortisol was set up as described in Example 1. Transcortin from rabbit serum was used as the source of binding protein and Sephadex G25 was used to separate protein free and bound material.
Typical results obtained using standard solutions of unlabelled cortisol to displace the labelled Δ^1 -corticosterone diselenide are: […]

[5] = target: T1, transcortin (charcoal treated rabbit serum); experiment: Assay for cortisol using Se-75 labelled bis-2,2'-(21-acetoxy-1-dehydrocortisol)-diselenide (competitive protein binding, Sephadex G25 separation); details: 2.3 ng label, 1 ml supernatant
Procedure: as §1

[6] = target: T1, transcortin (charcoal treated rabbit serum); experiment: Assay for cortisol - the use of β-mercaptoethanol in situ, tubes stored before use; assay type: binding
Procedure: as §1
Bis-2,2'-(21-acetoxy-1-dehydrocortisol)-diselenide-Se75 (100ng) in ethanol (10 ul) was added with stirring to a solution of β-mercaptoethanol (20 μl) in 0.05M phosphate buffer (pH 7.4; 1 ml). The mixture was left at room temperature for 20 minutes and then was added to a solution of 0.05M phosphate buffer (pH 7.4; 480 ml) containing sodium azide (1%) and charcoal treated rabbit serum (2 ml). After thorough mixing this solution was dispensed (in 6 ml aliquots) into glass assay tubes each containing Sephadex G25 (1 g). The tubes were capped and stored at room temperature until required, when the assay was then carried out as described above.

Compound: C[75Se]C1=C[C@@]2(C)C(=CC1=O)CC[C@@H]1[C@@H]2[C@@H](O)C[C@@]2(C)[C@H]1CC[C@]2(O)C(=O)COC(C)=O [2-methylseleno-1-dehydrocortisol-21-acetate-Se75]
- Counts - BKG in 300 sec ([1]; cortisol standard 0 μg/100 ml): 37447 and 37551
- Counts - BKG in 300 sec ([1]; cortisol standard 2 μg/100 ml): 36495 and 36981
- Counts - BKG in 300 sec ([1]; cortisol standard 4 μg/100 ml): 35381 and 34565
- Counts - BKG in 300 sec ([1]; cortisol standard 8 μg/100 ml): 31090 and 32353
- Counts - BKG in 300 sec ([1]; cortisol standard 16 μg/100 ml): 28011 and 28180
- Counts - BKG in 300 sec ([1]; cortisol standard 32 μg/100 ml): 24135 and 24340
- Counts - BKG in 300 sec ([1]; cortisol standard 64 μg/100 ml): 21601 and 21777
- dose-response curve of the cortisol assay ([1]; methylseleno- compared with the diseleno- derivative as label): steeper dose-response curve

Compound: C[75Se]C1=C[C@@]2(C)C(=CC1=O)CC[C@H]1[C@@H]3CC[C@H](O)[C@@]3(C)CC[C@@H]12 [2-methylseleno-1-dehydrotestosterone]
- antiserum dilution curves compared with tritiated testosterone as label [2]: identical to those obtained when tritiated testosterone was used as label
- % Bound ([2]; antiserum dilution 1/10^2): 85%
- % Bound ([2]; antiserum dilution 1/10^3): 80%
- % Bound ([2]; antiserum dilution 1/10^4): 45%
- % Bound ([2]; antiserum dilution 1/10^5): 18%
- % Bound ([2]; antiserum dilution 1/10^6): 13%

Compound: C[75Se]C1CC[C@@]2(C)[C@H](CC[C@@H]3[C@@H]2C[C@@H](O)[C@]2(C)[C@@H](C4=CC(=O)OC4)CC[C@]32O)C1 (some centres unmarked) [3-methylselenodigoxigenin-Se 75]
- % of Total Counts Bound ([3]; antiserum 1/50 dilution): 97.0%
- Mean Count ([3]; antiserum 1/50 dilution): 20750
- % of Total Counts Bound ([3]; antiserum 1/100 dilution): 80.6%
- Mean Count ([3]; antiserum 1/100 dilution): 17224
- % of Total Counts Bound ([3]; antiserum 1/200 dilution): 44.3%
- Mean Count ([3]; antiserum 1/200 dilution): 9489
- % of Total Counts Bound ([3]; antiserum 1/400 dilution): 26.8%
- Mean Count ([3]; antiserum 1/400 dilution): 5744
- % of Total Counts Bound ([3]; antiserum 1/500 dilution): 21.8%
- Mean Count ([3]; antiserum 1/500 dilution): 4659
- % of Total Counts Bound ([3]; antiserum 1/800 dilution): 15.3%
- Mean Count ([3]; antiserum 1/800 dilution): 3277
- % of Total Counts Bound ([3]; antiserum 1/1000 dilution): 12.2%
- Mean Count ([3]; antiserum 1/1000 dilution): 2602

Compound: C[C@]12C[C@H](O)[C@H]3[C@@H](CCC4=CC(=O)C([75Se][75Se]C5=C[C@@]6(C)C(=CC5=O)CC[C@@H]5[C@@H]6[C@@H](O)C[C@]6(C)[C@@H](C(=O)CO)CC[C@@H]56)=C[C@@]43C)[C@@H]1CC[C@@H]2C(=O)CO [bis-2,2'-(1-dehydrocorticosterone)-diselenide]
- Counts - Bkgd ([4]; cortisol standard 2 μg/100 ml): 24700
- Counts - Bkgd ([4]; cortisol standard 4 μg/100 ml): 24100
- Counts - Bkgd ([4]; cortisol standard 8 μg/100 ml): 22800
- Counts - Bkgd ([4]; cortisol standard 16 μg/100 ml): 21800
- Counts - Bkgd ([4]; cortisol standard 32 μg/100 ml): 21200
- Counts - Bkgd ([4]; cortisol standard 64 μg/100 ml): 20700

Compound: CC(=O)OCC(=O)[C@@]1(O)CC[C@H]2[C@@H]3CCC4=CC(=O)C([75Se][75Se]C5=C[C@@]6(C)C(=CC5=O)CC[C@@H]5[C@@H]6[C@@H](O)C[C@@]6(C)[C@H]5CC[C@]6(O)C(=O)COC(C)=O)=C[C@]4(C)[C@H]3[C@@H](O)C[C@@]21C [bis-2,2'-(21-acetoxy-1-dehydrocortisol)-diselenide-Se 75]
- Counts - Rkgd in 300 sec ([5]; cortisol standard 0 μg/100 ml): 34672 and 33573
- Counts - Rkgd in 300 sec ([5]; cortisol standard 2 μg/100 ml): 31116 and 32296
- Counts - Rkgd in 300 sec ([5]; cortisol standard 4 μg/100 ml): 31129 and 31389
- Counts - Rkgd in 300 sec ([5]; cortisol standard 8 μg/100 ml): 29987 and 30954
- Counts - Rkgd in 300 sec ([5]; cortisol standard 16 μg/100 ml): 29141 and 29356
- Counts - Rkgd in 300 sec ([5]; cortisol standard 32 μg/100 ml): 26842 and 25739
- Counts - Rkgd in 300 sec ([5]; cortisol standard 64 μg/100 ml): 23746 and 25895
- Counts per 100 seconds (corrected for background) ([6]; cortisol standard 2 μg/100 ml, storage time 1 day): 12814 and 13112
- Counts per 100 seconds (corrected for background) ([6]; cortisol standard 2 μg/100 ml, storage time 28 days): 13007 and 12356
- Counts per 100 seconds (corrected for background) ([6]; cortisol standard 4 μg/100 ml, storage time 1 day): 13012
- Counts per 100 seconds (corrected for background) ([6]; cortisol standard 4 μg/100 ml, storage time 28 days): 11884
- Counts per 100 seconds (corrected for background) ([6]; cortisol standard 8 μg/100 ml, storage time 1 day): 12754 and 12709
- Counts per 100 seconds (corrected for background) ([6]; cortisol standard 8 μg/100 ml, storage time 28 days): 11486 and 11624
- Counts per 100 seconds (corrected for background) ([6]; cortisol standard 16 μg/100 ml, storage time 1 day): 11980 and 11825
- Counts per 100 seconds (corrected for background) ([6]; cortisol standard 16 μg/100 ml, storage time 28 days): 10930 and 10467
- Counts per 100 seconds (corrected for background) ([6]; cortisol standard 32 μg/100 ml, storage time 1 day): 10988 and 10876
- Counts per 100 seconds (corrected for background) ([6]; cortisol standard 32 μg/100 ml, storage time 28 days): 10078 and 10365
- Counts per 100 seconds (corrected for background) ([6]; cortisol standard 64 μg/100 ml, storage time 1 day): 9636
- Counts per 100 seconds (corrected for background) ([6]; cortisol standard 64 μg/100 ml, storage time 28 days): 9967
